Data from patent US20150352134A1, “COMPOSITION FOR TOPICAL SKIN APPLICATION CONTAINING GINSENOSIDE F2 DERIVED FROM HYDROPONIC GINSENG” (AMOREPACIFIC CORPORATION, priority 2012, published 2015).
Each block holds one compound with its values, some of them ahead of it.

Columns and labels:
[1] = test system: potassium ion channels (KATP channels); assay: KATP channel opener test: recovery of NIH3T3 proliferation blocked by tolbutamide (WST-1); type: cell-based, mouse; details: 10 μM minoxidil after 2.5 mM tolbutamide, 48 hours
From the text: Minoxidil, a treatment for hair loss, is known as a potassium ion channel opener (KATP channel opener) potentially acting on mitochondria and a representative drug used for treatment of androgenic alopecia (hair loss). A testing method used to evaluate the action of minoxidil includes treating with tolbutamide (SIGMA-ALDRICH, T0891) blocking the potassium ion channels (KATP channels) in fibroblasts constituting the corium of scalp to inhibit cell proliferation and then opening the potassium ion channels (KATP channels) to resume the cell proliferation. In order to evaluate the function of the composition of the present invention as a KATP channel opener, the present invention uses a mouse embryonic fibroblast cell line, NIH3T3, as fibroblasts. The cell line is obtained by naturally immortalizing a fibroblast cell line isolated from an NIH Swiss mouse embryo with 3T3 protocol. The cell line is cultured with DMEM (Dulbecco's modified eagle's medium, Gibco BRL, Gaithersburg, Md., U.S.A.) containing 10% FBS (Fetal Bovine Serum) in an incubator under the conditions of 5% CO2 and 37° C. for 24 hours.

[2] = target: T1, elastase type III (Sus scrofa, UniProt P00772); assay: Elastase inhibitory effect; type: biochemical; details: EGCG 250 μM; 25° C., 15 minutes, absorbance 415 nm
T1 construct: purchased Sigma-Aldrich E0127
Protocol: The elastase inhibitory function of the ginsenoside F2 is measured in comparison with that of EGCG. The elastase and the substrate used herein are purchased from Sigma-Aldrich, U.S.A. (Cat. No. E0127).
The elastase inhibitory function is measured according to the following method.
In a 96-well plate, ginsenoside F2 (200 μL) and 50 μL of a 20 μg/mL elastase type III solution are mixed with a […] tris-HCL buffer solution (pH 8.0). The positive control is EGCG 250 μM, and the negative control which is a non-treated group is distilled water. Then, 100 μL of 0.4514 mg/mL N-succinyl-ala-ala-ala-p-nitroanilide prepared with the buffer solution is added to the mixture and allowed to react at 25° C. for 15 minutes. After completion of the reaction, the absorbance at 415 nm was measured. The blank test is performed in the same manner as described above to achieve calibration verification.
The elastase inhibitory function is calculated according to the following mathematical formula 1, and the results are presented in Table 2.
Elastase inhibition rate (%)={1−(C−D)/(A−B)}×100 [Mathematical Formula 1]
A: Absorbance at 415 nm with enzyme and no test substance.
B: Absorbance at 415 nm with no test substance and no enzyme.
C: Absorbance at 415 nm with test substance and enzyme.
D: Absorbance at 415 nm with test substance and no enzyme.

[3] = test system: tyrosinase; assay: Tyrosinase inhibitory effect; type: biochemical, mushrooms; details: 37° C., absorbance 475 nm
Protocol: The tyrosinase as used herein is an enzyme extracted from mushrooms and purchased from Sigma-Aldrich. Firstly, tyrosine as a substrate is dissolved in distilled water to prepare a 0.3 mg/mL solution, which is added dropwise to a test tube at an amount of 1.0 mL each time. To the solution are added 1.0 mL of a potassium phosphate buffer solution (0.1 mol, pH 6.8) and 0.7 mL of distilled water.
0.2 mL of the sample solution is added to the reactant solution and then allowed to have a reaction in a thermostat container at 37° C. for 10 minutes. In this regards, the control is the reactant solution containing 0.2 mL of a solvent alone in place of each sample solution. The positive control uses ascorbic acid. 0.1 mL of a 2500 unit/mL tyrosinase solution is added to the reactant solution, which is then allowed to have a reaction again in a thermostat container at 37° C. for 10 minutes. The test tube filled with the reactant solution is put into an ice water to cause quenching and thus stop the reaction. The absorbance at 475 nm is measured with a photoelectric spectrophotometer. The tyrosinase inhibitory effect is calculated according to the following mathematical formula 3.

[4] = test system: tyrosinase; assay: Tyrosinase expression in melanocytes (Western Blot); type: cell-based; details: 501me1 cell line, IBMX 100 μM, ginsenoside 10 ppm
Protocol: (§1) 501me1 cell line is injected in each well of a 6-well microtiter plate at a rate of 500,000 cells/well. The cell line in each well is treated with 0.1% of DMSO as the negative control group, 100 μM of IBMX as the positive control group, or ginsenoside 10 ppm of F2 as the test group, and cultured at 37° C. for 24 hours, 48 hours, or 72 hours, to obtain proteins. The proteins thus obtained are subjected to Western Blot using MITF and tyrosinase antibodies. Protein extraction and Western Blot are performed using the standard methods known in the art.

[5] = test system: Melanin-a cells; assay: Melanogenesis promotion in Melanin-a cells; type: cell-based; details: 100 μM, 3 days; DMSO (0.1%) = 100
Protocol: Melanin-a cells are injected in a 24-well microtiter plate at a rate of 50,000 cells per well with an RPMI medium containing 5% fetal bovine serum, 100 IU penicillin G, and 0.2 μM TPA. Next day, the cells are treated with ginsenoside F2 as a test substance independently at the final concentration of 10 ppm or 50 ppm. The negative control is treated with 0.1% DMSO, and the positive control is treated with 100 μM IBMX. Then, the cells are cultured at 37° C. for 3 days. The wells of the plate are washed with PBS, and 100 μl of 1N NaOH is added to each well to dissolve melanin in the cells. The absorbance of the dissolved melanin is measured at 405 nm with a microplate reader. The effect of the ginsenoside F2 to promote melanogenesis is evaluated in comparison with that of the control groups.

[6] = test system: MITF; assay: MITF expression in melanocytes (Western Blot); type: cell-based; details: 501me1 cell line, IBMX 100 μM, ginsenoside 10 ppm
Protocol: as §1

[7] = test system: mouse with vitiligo (C57b1/6-Mitf^mi-vit); assay: Grey hair prevention: melanin in newly grown hair of mouse with vitiligo; type: in vivo; details: applied twice a day, about 3 weeks, 50 mM IBMX, 2.5% ginsenoside F2
Protocol: A mouse with vitiligo (C57b1/6-Mitf^mi-vit) is purchased from The Jackson Lab in U.S.A. The testing method on the grey hair inhibitory effect using a mouse with lots of grey hair is carried out as follows. A 12-week old mouse is subjected to depilation on the back side. The area of the depilated region is controlled to be the same to every object. From the next day of the depilation, the grey hair inhibitory substances are applied on the depilated region twice a day. The vehicle for the grey hair inhibitory substances is the mixture of EtOH, 1,3-BG and DW (3:2:5 in volume ratio). The liquid containing the vehicle alone is the negative control, the liquid containing the vehicle in combination with 50 mM IBMX is the positive control, and the liquid containing the vehicle in combination with 2.5% ginsenoside F2 is the test group. When the difference in the grey hair inhibitory effect between the substances is visually recognizable in about 3 weeks, the newly grown hair is collected to measure the quantity of melanin produced in the hair. The quantity of melanin in the hair is measured using esperase (Novozyme) strains that are a protein hydrolase. Esperase is dissolved in a buffer solution (50 mM tris-HCl, 5 mM DTT, pH 9.3) to a concentration of 1 NPU/ml to prepare a reaction buffer. 5 mg of mouse hair is put in 1 ml of the reaction buffer, which is stirred at a speed of 1,000 rpm at 37° C. for 13 hours to cause the reaction and then subjected to a momentary centrifugal isolation to separate the reactant solution from hair. The reactant solution thus obtained is placed in each well of a 96-well plate, and the absorbance at 405 nm is measured to determine the amount of melanin in the reactant solution. When a mouse with vitiligo and lots of grey hair is treated with the negative control substance, the positive control substance, or the test substance, the efficacies are visually observed, and the melanin in hair is quantitatively analyzed.

[8] = test system: B16/F10 melanoma cells; assay: Melanogenesis inhibition in B16/F10 melanoma cells; type: cell-based; details: sample containing 0.001 wt. % of test substance; 3-day cultivation
Protocol: As a test substance, a sample containing 0.001 wt. % of ginsenoside F2 or kojic acid is added to a culture medium of B16/F10 melanoma cells (available from Korean Cell Line Bank) at a predetermined concentration. The culture medium is eliminated after 3-day cultivation. The cells are washed with PBS and dissolved in 1N NaOH. Then, the absorbance at 405 nm is measured. The control is the cells not treated with any test substance. In comparison with the melanin content in the control group, the inhibitory ability of each test substance against melanogenesis is measured. […] [formula]

[9] = test system: collagenase (MMP-1); assay: Collagenase (MMP-1) expression in human fibroblasts (ELISA); type: cell-based; details: 10 μg/mL for 24 hours; not treated control = 100
Protocol: The ginsenoside F2 of the present invention is measured in regards to the inhibitory effect on the generation of collagenase in comparison with retinoic acid. […] The human fibroblasts are treated with ginsenoside F2 or retinoic acid at a concentration of 10 μg/mL for 24 hours. Then, the cell culture medium is collected. The production yield of collagenase in the collected cell culture medium is measured using a collagenase measurement instrument commercially available (Catalog #. RPN 2610, USA Amersham Pharma Inc.). Firstly, the collected cell culture medium is put in each well of a 96-well plate uniformly coated with the primary collagenase antibodies and then subjected to antigen-antibody reactions in a thermostat container for 3 hours. After 3 hours, the secondary collagenase antibodies coupled to the chromophore groups are put in each well of the 96-well plate and then allowed to react for more 15 minutes. […] The intensity of yellowness in the reaction mixture is varied depending on the progress of the reaction. The absorbance of the yellow-colored 96-well plate is measured at 405 nm with a spectrophotometer, and the expression level of collagenase is calculated according to the following mathematical formula 2. In this regard, the absorbance of the cell culture medium collected from the group not treated with the composition of the present invention is considered as the absorbance of the control. [formula]

[10] = test system: procollagen type (I) in fibroblasts; assay: Collagen biosynthesis in fibroblasts (procollagen type (I) ELISA); type: cell-based; details: 10 ng/ml, 24 hours; non-treated group = 100%
Protocol: The ginsenoside F2 of the present invention is compared with TGF-β in regards to the effect of promoting biosynthesis of collagen. Firstly, fibroblasts are seeded in 24 wells at a rate of 10^5 per well and cultured until the growth reaches 90%. The fibroblasts are cultured in a non-serum culture medium for 24 hours, treated with each 10 ng/ml of ginsenoside F2 or TGF-β dissolved in the non-serum culture medium, and then cultured in a CO2 incubator for 24 hours. The supernatant liquid is collected to determine an increase or decrease of procollagen using a procollagen type (I) ELISA kit. The collagen synthesis ability is denoted with respect to 100% for the non-treated group.

[11] = target: T2, 5α-reductase (Homo sapiens, UniProt P31213); assay: 5α-reductase activity inhibition, conversion of [14C]testosterone to DHT in HEK293-5α R2 cells; type: cell-based; details: 2 hours
T2 construct: 3×FLAG; expressed in transfected cells; host or cells: HEK293
T2 sequence (P31213 1-254): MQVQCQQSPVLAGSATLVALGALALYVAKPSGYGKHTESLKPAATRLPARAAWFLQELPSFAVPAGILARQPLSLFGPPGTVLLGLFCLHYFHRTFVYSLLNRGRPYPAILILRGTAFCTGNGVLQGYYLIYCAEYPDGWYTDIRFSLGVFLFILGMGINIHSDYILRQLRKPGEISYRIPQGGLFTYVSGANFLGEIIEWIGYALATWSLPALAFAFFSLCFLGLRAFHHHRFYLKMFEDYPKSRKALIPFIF
Protocol: In order to evaluate the inhibitory effect on the activity of 5α-reductase, the conversion rate from [^14C]testosterone to [^14C]dihydrotestosterone (DHT) in HEK293-5α R2 cells is measured. P3×FLAG-CMV-5α R2 is transduced into HEK293 cells, which are cultured in a 24-well plate at a rate of 2.5×10^5 cells per well (Park et al., 2003, JDS. Vol. 31, pp. 191-98). The next day, the used culture medium is replaced with a new culture medium containing an enzyme substrate and an inhibitor. The substrate of the culture medium is 0.05 μCi [^14C]testosterone (Amersham Pharmacia Biotech, UK).
To evaluate the degree of 5α-reductase activity inhibition, the cells are treated with ginsenoside F2 and then cultured in a 5% CO2 incubator at 37° C. for 2 hours. In this regard, the negative control is the group not treated with ginsenoside F2, while the positive control is the group treated with finasteride. Subsequently, the culture medium is collected to extract steroids with 800 μl of ethylacetate, and the supernatant organic solvent phase is isolated and dried. The residue is dissolved in 50 μl of ethylacetate and developed on silica plastic sheet kieselgel 60 F254 using an ethylacetate-hexane (1:1) solvent.
The plastic sheet is dried out in the air and measured in regards to the abundance of isotope using a bath system. The dry plastic sheet together with an X-ray film is put in a bath cassette. After one week, the abundance of isotope of testosterone and dihydrotestosterone remaining on the film is measured to calculate the conversion rate and the inhibition rate according to the following mathematical formulas 5 and 6, respectively.

T1 sequence (P00772 27-266): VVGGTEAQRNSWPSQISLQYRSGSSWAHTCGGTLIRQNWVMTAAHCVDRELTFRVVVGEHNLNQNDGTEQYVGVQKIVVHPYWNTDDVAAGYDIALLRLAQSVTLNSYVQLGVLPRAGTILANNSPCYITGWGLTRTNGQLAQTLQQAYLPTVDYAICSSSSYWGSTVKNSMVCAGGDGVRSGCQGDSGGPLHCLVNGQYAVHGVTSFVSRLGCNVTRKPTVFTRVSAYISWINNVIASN

Compound: Nc1cc(N2CCCCC2)nc(N)[n+]1[O-] [Minoxidil]
Cell proliferation ability (%) [1]: 132%

Inhibition rate (%) (elastase) [2]: 65%
Compound: O=C(O[C@@H]1Cc2c(O)cc(O)cc2O[C@@H]1c1cc(O)c(O)c(O)c1)c1cc(O)c(O)c(O)c1 [EGCG]

Tyrosinase inhibition rate (%) [3]: 52%
Compound: O=C1O[C@H]([C@@H](O)CO)C(O)=C1O [Ascorbic acid, ascorbic acid]

Compound: CC(C)Cn1c(=O)n(C)c(=O)c2[nH]cnc21 [IBMX]
Tyrosinase (Western Blot, in comparison with 100 of the negative control group) ([4]; 24 hrs): 160
Tyrosinase (Western Blot, in comparison with 100 of the negative control group) ([4]; 48 hrs): 149
Tyrosinase (Western Blot, in comparison with 100 of the negative control group) ([4]; 72 hrs): 298
Yield of Melanin (%) [5]: 120%
MITF (Western Blot, in comparison with 100 of the negative control group) ([6]; 24 hrs): 121
MITF (Western Blot, in comparison with 100 of the negative control group) ([6]; 48 hrs): 98
MITF (Western Blot, in comparison with 100 of the negative control group) ([6]; 72 hrs): 224
Amount of melanin (%) with respect to control [7]: 105.9%

Compound: O=c1cc(CO)occ1O [Kojic acid, kojic acid]
Melanogenesis inhibition rate (%) [8]: 53%

Compound: CC1=C(/C=C/C(C)=C/C=C/C(C)=C/C(=O)O)C(C)(C)CCC1 [Retinoic acid, retinoic acid]
Collagenase expression level(%) [9]: 75%

Compound: TGF-β
Collagen synthesis ability (%) [10]: 183.5%

Inhibition rate (%) ([11]; 5α-reductase activity): 42.5%
Conversion rate (%) ([11]; testosterone to dihydrotestosterone): 27.6%
Compound: CC(C)(C)NC(=O)[C@H]1CC[C@H]2[C@@H]3CC[C@H]4NC(=O)C=C[C@]4(C)[C@H]3CC[C@]12C [Positive control, finasteride, reference compound]
